Data as given in patent publication US8258134B2, “Pyridazinone glucokinase activators” (Hoffmann-La Roche Inc., priority 2008, dated 2012).

Target: T1, Recombinant human liver GK1 (GST-GK) (Homo sapiens, UniProt P35557)
T1 construct: made in house; host or cells: E. coli
T1 sequence (P35557 1-466 isoform P35557-2): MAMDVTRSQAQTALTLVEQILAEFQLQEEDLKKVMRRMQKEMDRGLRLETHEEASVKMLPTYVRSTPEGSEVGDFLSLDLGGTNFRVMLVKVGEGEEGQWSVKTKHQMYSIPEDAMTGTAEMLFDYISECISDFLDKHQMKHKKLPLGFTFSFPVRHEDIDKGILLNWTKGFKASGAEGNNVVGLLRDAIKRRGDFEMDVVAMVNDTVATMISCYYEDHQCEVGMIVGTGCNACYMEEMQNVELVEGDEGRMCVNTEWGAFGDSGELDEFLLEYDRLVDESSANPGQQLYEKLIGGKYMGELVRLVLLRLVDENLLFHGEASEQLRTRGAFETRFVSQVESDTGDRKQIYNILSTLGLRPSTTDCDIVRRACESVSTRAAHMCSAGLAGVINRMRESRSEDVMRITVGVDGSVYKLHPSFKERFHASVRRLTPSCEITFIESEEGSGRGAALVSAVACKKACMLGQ
Assay: Glucokinase in vitro assay (G6PDH-coupled NADH generation, OD340)
Format: biochemical
Conditions: 5 mM D-glucose, 30° C., pH 7.1, 10% DMSO
Summary of the method: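 Activation readout is SC1.5, the activator concentration raising GK rate (OD340/min) 50% above 10% DMSO controls. The coupled reaction used GST-GK1 from E. coli, 5 mM glucose, 1 mM ATP, 1.8 mM NAD and 25 mM Hepes pH 7.1 at 30° C. Enzyme was added after a 10 min compound pre-incubation.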

Compared with `COc1cccc(Oc2cnn(C(CC(C)C)C(=O)Nc3ccn(C[C@@H](O)CO)n3)c(=O)c2)c1Cl` (stereo partly drawn) [Example 127, 2-[4-(2-Chloro-3-methoxy-phenoxy)-6-oxo-6H-pyridazin-1-yl]-4-methyl-pentanoic acid [1-((R)-2,3-dihydroxy-propyl)-1H-pyrazol-3-yl]-amide], `CC(C)CC(C(=O)Nc1ccn(CCO)n1)n1ncc(Oc2c(F)cccc2F)cc1=O` (centres unmarked) [Example 59, 2-[4-(2,6-Difluoro-phenoxy)-6-oxo-6H-pyridazin-1-yl]-4-methyl-pentanoic acid [1-(2-hydroxy-ethyl)-1H-pyrazol-3-yl]-amide] is 1.7-fold higher in “SC1.5 average (concentration of activator that produced a 50% increase in the activity of GK)” value: 0.334 µM for the first, 0.576 µM for the second.

First: CC(C)(O)Cn1ccc(NC(=O)[C@@H](CC2CCCC2)n2ncc(Oc3ccccc3C#N)cc2=O)n1 [Example 29B, (R)-2-[4-(2-Cyano-phenoxy)-6-oxo-6H-pyridazin-1-yl]-3-cyclopentyl-N-[1-(2-hydroxy-2-methyl-propyl)-1H-pyrazol-3-yl]-propionamide]
Second: CC(C)(O)Cn1ccc(NC(=O)[C@@H](CC2CCCC2)n2ncc(Oc3ccccc3F)cc2=O)n1 [Example 19B, (R)-3-Cyclopentyl-2-[4-(2-fluoro-phenoxy)-6-oxo-6H-pyridazin-1-yl]-N-[1-(2-hydroxy-2-methyl-propyl)-1H-pyrazol-3-yl]-propionamide]
The “SC1.5 average (concentration of activator that produced a 50% increase in the activity of GK)” value of the first is 3.3-fold higher: 11.185 µM for the first, 3.411 µM for the second.

`Cc1ccc(F)c(Oc2cnn(C(CC3CCCC3)C(=O)Nc3ccn(C[C@@H](O)CO)n3)c(=O)c2)c1` (stereo partly drawn) [Example 100, 3-Cyclopentyl-N-[1-((R)-2,3-dihydroxy-propyl)-1H-pyrazol-3-yl]-2-[4-(2-fluoro-5-methyl-phenoxy)-6-oxo-6H-pyridazin-1-yl]-propionamide] and `O=C(Nc1ccn(C[C@@H](O)CO)n1)C(CC1CCCC1)n1ncc(Oc2ccccc2Cl)cc1=O` (stereo partly drawn) [Example 128, 2-[4-(2-Chloro-phenoxy)-6-oxo-6H-pyridazin-1-yl]-3-cyclopentyl-N-[1-((R)-2,3-dihydroxy-propyl)-1H-pyrazol-3-yl]-propionamide] are within 1.5-fold of each other in “SC1.5 average (concentration of activator that produced a 50% increase in the activity of GK)” value: 0.101 µM for the first, 0.093 µM for the second.

First: COc1cccc(Oc2cnn(C(CC3CCCC3)C(=O)Nc3ccn(CC(C)(C)O)n3)c(=O)c2)c1 (centres unmarked) [Example 7, 3-Cyclopentyl-N-[1-(2-hydroxy-2-methyl-propyl)-1H-pyrazol-3-yl]-2-[4-(3-methoxy-phenoxy)-6-oxo-6H-pyridazin-1-yl]-propionamide]
Second: CC(C)(O)Cn1ccc(NC(=O)C(CC2CCCC2)n2ncc(Oc3ccccc3)cc2=O)n1 (centres unmarked) [Example 1, 3-Cyclopentyl-N-[1-(2-hydroxy-2-methyl-propyl)-1H-pyrazol-3-yl]-2-(6-oxo-4-phenoxy-6H-pyridazin-1-yl)-propionamide]
The “SC1.5 average (concentration of activator that produced a 50% increase in the activity of GK)” value of the first is 1.7-fold lower: 0.428 µM for the first, 0.707 µM for the second.

First: CC(C)(O)Cn1ccc(NC(=O)C(CC2CCOCC2)n2ncc(Oc3c(F)cccc3F)cc2=O)n1 (centres unmarked) [Example 43, 2-[4-(2,6-Difluoro-phenoxy)-6-oxo-6H-pyridazin-1-yl]-N-[1-(2-hydroxy-2-methyl-propyl)-1H-pyrazol-3-yl]-3-(tetrahydro-pyran-4-yl)-propionamide]
Second: O=C(Nc1ccn(C[C@@H](O)CO)n1)C(CC1CCCCC1)n1ncc(Oc2c(F)cccc2F)cc1=O (stereo partly drawn) [Example 63, 3-Cyclohexyl-2-[4-(2,6-difluoro-phenoxy)-6-oxo-6H-pyridazin-1-yl]-N-[1-((R)-2,3-dihydroxy-propyl)-1H-pyrazol-3-yl]-propionamide]
The “SC1.5 average (concentration of activator that produced a 50% increase in the activity of GK)” value of the first is 2-fold higher: 0.232 µM for the first, 0.117 µM for the second.

First: CC(C)(O)Cn1ccc(NC(=O)C(CC2CCCC2)n2ncc(OCC3CCCC3)cc2=O)n1 (centres unmarked) [Example 9, 3-Cyclopentyl-2-(4-cyclopentylmethoxy-6-oxo-6H-pyridazin-1-yl)-N-[1-(2-hydroxy-2-methyl-propyl)-1H-pyrazol-3-yl]-propionamide]
Second: CC(C)(O)Cn1ccc(NC(=O)[C@@H](CC2CCCC2)n2ncc(Oc3ccccc3N3CCCC3)cc2=O)n1 [Example 26B, (R)-3-Cyclopentyl-N-[1-(2-hydroxy-2-methyl-propyl)-1H-pyrazol-3-yl]-2-[6-oxo-4-(2-pyrrolidin-1-yl-phenoxy)-6H-pyridazin-1-yl]-propionamide]
The “SC1.5 average (concentration of activator that produced a 50% increase in the activity of GK)” value of the first is 17-fold lower: 1.548 µM for the first, 26.027 µM for the second.

First: COC(=O)c1ccc(NC(=O)C(CC2CCCC2)n2ncc(Oc3ccccc3C3CCCC3)cc2=O)nc1 (centres unmarked) [Example 66, 6-{3-Cyclopentyl-2-[4-(2-cyclopentyl-phenoxy)-6-oxo-6H-pyridazin-1-yl]-propionylamino}-nicotinic acid methyl ester]
Second: O=C(O)c1ccc(NC(=O)[C@H](CC2CCCC2)n2ncc(Oc3cccc4c3CCCC4)cc2=O)nc1 [Example 72A, 6-{(S)-3-Cyclopentyl-2-[6-oxo-4-(5,6,7,8-tetrahydro-naphthalen-1-yloxy)-6H-pyridazin-1-yl]-propionylamino}-nicotinic acid]
The “SC1.5 average (concentration of activator that produced a 50% increase in the activity of GK)” value of the first is 40-fold higher: 1.74 µM for the first, 0.044 µM for the second.

First: O=C(O)c1ccc(NC(=O)C(CC2CCCC2)n2ncc(Oc3c(F)cccc3F)cc2=O)nc1 (centres unmarked) [Example 73, 6-{3-Cyclopentyl-2-[4-(2,6-difluoro-phenoxy)-6-oxo-6H-pyridazin-1-yl]-propionylamino}-nicotinic acid]
Second: Cc1nsc(NC(=O)C(CC2CCCC2)n2ncc(Oc3ccccc3)cc2=O)n1 (centres unmarked) [Example 3, 3-Cyclopentyl-N-(3-methyl-[1,2,4]thiadiazol-5-yl)-2-(6-oxo-4-phenoxy-6H-pyridazin-1-yl)-propionamide]
The “SC1.5 average (concentration of activator that produced a 50% increase in the activity of GK)” value of the first is 80-fold lower: 0.026 µM for the first, 2.07 µM for the second.

Going from `O=C(Nc1nccs1)C(CC1CCCC1)n1ncccc1=O` (centres unmarked) [Example 79, 3-Cyclopentyl-2-(6-oxo-6H-pyridazin-1-yl)-N-thiazol-2-yl-propionamide] to `CC(C)(O)Cn1ccc(NC(=O)C(CC2CCCC2)n2ncc([S+]([O-])c3ccccc3)cc2=O)n1` (centres unmarked) [Example 124, 2-(4-Benzenesulfinyl-6-oxo-6H-pyridazin-1-yl)-3-cyclopentyl-N-[1-(2-hydroxy-2-methyl-propyl)-1H-pyrazol-3-yl]-propionamide], the “SC1.5 average (concentration of activator that produced a 50% increase in the activity of GK)” value falls from 14.605 µM to 2.461 µM (5.9-fold).

First: Cc1ccc(Oc2cnn(C(CC3CCCCC3)C(=O)Nc3ccn(CC(C)(C)O)n3)c(=O)c2)c(C)c1 (centres unmarked) [Example 117, 3-Cyclohexyl-2-[4-(2,4-dimethyl-phenoxy)-6-oxo-6H-pyridazin-1-yl]-N-[1-(2-hydroxy-2-methyl-propyl)-1H-pyrazol-3-yl]-propionamide]
Second: CC(C)(O)Cn1ccc(NC(=O)C(CC2CCCCC2)n2ncc(Oc3ccccc3)c(Cl)c2=O)n1 (centres unmarked) [Example 136, 2-(5-Chloro-6-oxo-4-phenoxy-6H-pyridazin-1-yl)-3-cyclohexyl-N-[1-(2-hydroxy-2-methyl-propyl)-1H-pyrazol-3-yl]-propionamide]
The “SC1.5 average (concentration of activator that produced a 50% increase in the activity of GK)” value of the first is 3.3-fold lower: 0.352 µM for the first, 1.17 µM for the second.
